# Key:
# [1] = test system: primary rat neurons; test: Microtubule dynamics in glutamate-stimulated cultures of primary rat neurons; type: cell-based; conditions: parallel experiments, data not shown
# Protocol: Rat brain hippocampus neuronal cells were obtained from Cambrex Bio Science (Walkersville, Md.). The neurons were grown in Neurobasal medium supplemented with 2 mM Glutamine, 100 U/ml penicillin/streptomycin- and 2% B27 in a humidified atmosphere of 10% CO2 at 37° C. for 14 days on a poly-D-lysine and laminin coated 10 cm^2 tissue culture dish.
# During experimental manipulation of neural connectivity, the dynamic responses of dendritic microtubules to various stimuli are likely to differ from those of axonal shafts or of the cell body. In order to detect such differential responses by use of the invention disclosed herein, we cultured primary neurons from rat brain hippocampi and labeled newly synthesized tubulin by adding 5% ^2H2O in culture media for 24 hours. After separation of tubulin dimers and polymers in cytosolic extracts, we captured axonal growth cone and dendritic microtubules by sequential binding to immunoaffinity columns reactive with tau and MAP2, respectively, leaving only somatic and axonal shaft microtubules in the unbound fraction (FIG. 5A). Tubulin was purified further from each fraction, and label incorporation into Ala was measured by GC/MS (FIG. 5B). […] Free Ala in culture media was >80% equilibrated with ^2H2O (not shown). […]
# [2] = test system: hippocampal tubulin dimers and tau-associated, tau-nonassociated (MAP2/STOP) and cold-stable microtubules; test: 2H label incorporation into hippocampal tubulin dimers and microtubule fractions after ICVC infusion (2H2O labeling, GC/MS); type: in vivo, mouse; conditions: for label incorporation into new MAP2/STOP-MTs: vs water
# Protocol: In (A) and (B), mice received ICVC infusions of 6 μl water alone or containing 0.48 nmol glutamate (80 μM in the infusate), or glutamate plus 0.66 pmol Rp-cAMP (110 nM in the infusate). Animals were then labeled with ^2H2O for 8 hours (A) or 24 hours (B). At sacrifice, the hippocampal post-nuclear supernatant was fractionated as show in FIG. 5A; a separate aliquot was used for isolation of cold stable (CS) MTs (FIG. 5D). Glutamate injection stimulated label incorporation into new MAP2/STOP-MTs at 8 and 24 hours, and CS MTs at 24 hours; both were blocked by Rp-cAMP. In order to correct the effects of pharmacologic intervention on MT dynamics for the confounding changes in tubulin synthesis, the numbers above each bar express ^2H label incorporation into MT as a percentage of ^2H labeling in the corresponding tubulin dimer fractions. (C) Dose dependence of glutamate effects. ^2H2O labeling was initiated at time zero, 6 μl ICVC infusions with the indicated concentrations of glutamate were performed at 24 hours, and labeling was continued until sacrifice at 48 hours (24 hours post glutamate infusion). Hippocampal MTs were fractionated into tau-associated, MAP2-associated, and non-associated (STOP-associated) MT fractions, as in FIG. 5A. In all experiments, bars represent % new tubulin (mean±SD, n=3).
# Tubulin was purified using minor modifications of protocols described previously (Fanara, P., Oback, B., Ashman, K., Podtelejnikov, A., Brandt, R. Identification of MINUS, a small polypeptide that functions as a microtubule nucleation suppressor. EMBO J. 18, 565-577 (1999); Fanara, P. et al. In vivo measurement of microtubule dynamics using stable isotope labeling with heavy water. Effect of taxanes. J. Biol. Chem. 279, 49940-49947 (2004). Briefly, cultured neurons were gently scraped off culture plates, washed in phosphate-buffered saline (PBS), and homogenized in microtubule-stabilizing buffer. For purification ex vivo, mice were anesthetized with isoflurane and euthanized by cervical dislocation. Brains were rapidly removed and washed in microtubule-stabilizing buffer (MSB); hippocampi were dissected and gently homogenized in MSB. To separate cytosolic tubulin dimers from microtubule polymers, post-nuclear supernatants were centrifuged at 190,000×g at 20° C. for 35 min. The supernatant or non-microtubule fraction (containing the soluble dimeric tubulin) was separated from the pellet or microtubule fraction (containing polymeric tubulin), quick-frozen and stored at −20° C. Microtubule pellets were further fractionated by sequential immunoaffinity chromatography steps (FIG. 3). In order to isolate tau-associated microtubules, TAU5 antibody was covalently coupled to epoxy-activated Sepharose beads (Amersham Pharmacia Biotech) at a concentration of 0.25 mg/ml. Approximately 0.2 mg of the microtubule pellet was incubated with TAU-5 beads in 0.5 ml MSB for 1 hour at room temperature. Unbound material was removed, the beads were washed three times in 0.5 ml of MSB, and bound material was eluted in 0.5 ml MSB containing 1M NaCl. In some experiments, MAP2-associated microtubules were captured from the TAU5-unbound material by immunoaffinity chromatography on epoxy-activated Sepharose beads coupled to MAP2 antibody (0.5 mg antibody per ml beads) using the same protocol. The relative abundance of tubulin in each preparation (Tubulin dimers and TAU5-bound, MAP2-bound, and unbound microtubule fractions) was quantified by Western blot, and tubulin from these fractions was further purified by ion exchange and size exclusion chromatography, as previously described (Fanara, P. et al. In vivo measurement of microtubule dynamics using stable isotope labeling with heavy water. Effect of taxanes. J. Biol. Chem. 279, 49940-49947 (2004)). […]
# [3] = dose-dependence experiment, 24 hours post stimulation
smiles,measurement,setting,value
"N[C@@H](CCC(=O)[O-])C(=O)[O-].[K+].[K+] [glutamate, potassium L-glutamate]",microtubule label incorporation pattern compared with in vivo,[1],identical results
same,label incorporation into new MAP2/STOP-MTs,"[2]; 0.48 nmol glutamate ICVC, 2H2O labeling 8 hours",stimulated
same,label incorporation into new MAP2/STOP-MTs,"[2]; 0.48 nmol glutamate ICVC, 2H2O labeling 24 hours",stimulated
same,fractional synthesis of tubulin dimers,"[2]; 0.48 nmol glutamate ICVC, 8 and 24 hours labeling, vs controls",somewhat enhanced
same,tau-nonassociated microtubules exchanged with free tubulin,"[2]; 0.48 nmol glutamate ICVC, 8 hours",ca. 80%
same,labeling of cold-stable (axonal shaft) microtubules,"[2]; 0.48 nmol glutamate ICVC, 8 hours, vs controls",indistinguishable from controls
same,tau-nonassociated microtubules exchanged with free tubulin,"[2]; 0.48 nmol glutamate ICVC, 24 hours",ca. 80%
same,cold-stable microtubules equilibrated with free tubulin,"[2]; 0.48 nmol glutamate ICVC, 24 hours, MT label as percentage of tubulin dimer label",about 40%
same,label incorporation into cold stable (CS) MTs,"[2]; 0.48 nmol glutamate ICVC, 24 hours, vs controls",increased
same,label incorporation into cold stable (CS) MTs,"[2]; 0.48 nmol glutamate ICVC, 24 hours, vs controls, listed as Glutamate",stimulated
same,exchange of tau-associated microtubules with tubulin dimers,[2]; 8 hours after stimulation with glutamate,highly exchanged
same,dynamics of tau-associated microtubules,"[2]; 24 hours after stimulation with glutamate, vs controls",less dynamic than controls
same,fractional tubulin synthesis,"[2]; dose-dependence experiment: 2H2O started 24 hours before varying amounts of glutamate, sacrifice 24 hours post infusion",at most slight effects
same,decreased label incorporation in tau-associated microtubules,[2]; [3],glutamate-dose dependent
same,increased tubulin incorporation into dendritic and axonal shaft microtubules,[2]; [3],glutamate-dose dependent

# From patent publication US20090197279A1, “MICROTUBULE SYNTHESIS AS A BIOMARKER” (KINEMED, INC., priority 2005, published 2009)
